What is called Kd is the concentration at which binding is half-saturated. A high value points to weaker binding.

In ChEMBL document CHEMBL1149118, “Validation of molecular docking calculations involving FGF-1 and FGF-2” (J Med Chem, 2004) one finds Delta G and Kd data, which are given here for 20 compounds.

Experiment [1] has as its target T1, Fibroblast growth factor 2 (Homo sapiens, UniProt P09038). As to the kind of experiment: Binding affinity for Fibroblast growth factor 2.
Experiment [2] has as its target T2, Fibroblast growth factor 1 (Homo sapiens, UniProt P05230). As to the kind of experiment: Dissociation constant for Fibroblast growth factor 1.
The target of experiment [3] is T2, Fibroblast growth factor 1. Nature of the experiment: Binding affinity for Fibroblast growth factor 1.
Experiment [4] addresses T1, Fibroblast growth factor 2. Nature of the experiment: Dissociation constant for Fibroblast growth factor 2.
The target in experiment [5] is T1, Fibroblast growth factor 2. As to the kind of experiment: Dissociation constant for Fibroblast growth factor 2 (None observed).
The target in experiment [6] is T1, Fibroblast growth factor 2. As to the kind of experiment: Dissociation constant for Fibroblast growth factor 2 (None Observed).

T2 sequence (P05230 whole entry): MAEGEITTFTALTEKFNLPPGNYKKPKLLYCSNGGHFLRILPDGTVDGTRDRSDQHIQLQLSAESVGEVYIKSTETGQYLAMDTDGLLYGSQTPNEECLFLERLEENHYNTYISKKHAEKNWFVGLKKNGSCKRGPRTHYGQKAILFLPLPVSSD
T1 sequence (P09038 143-288 limits assumed): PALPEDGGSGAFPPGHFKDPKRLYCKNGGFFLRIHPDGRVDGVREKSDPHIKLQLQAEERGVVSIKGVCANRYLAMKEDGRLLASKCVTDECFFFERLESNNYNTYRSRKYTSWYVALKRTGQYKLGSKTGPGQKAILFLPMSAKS

As to `[N-]=[N+]=NCC1OC(OS(=O)(=O)O)C(OS(=O)(=O)O)C(OS(=O)(=O)O)C1OS(=O)(=O)O` (configuration not stated), the Delta G was -4.89 kcal/mol in experiment [1] and -4.73 kcal/mol in experiment [3]. Also, the figures for the Kd in experiment [2] and in experiment [4] were 340 µM and 258 µM, respectively.
As for `O=S(=O)(O)C[C@@H]1[C@@H](O[C@]2(COS(=O)(=O)O)O[C@H](COS(=O)(=O)O)[C@@H](OS(=O)(=O)O)[C@@H]2OS(=O)(=O)O)O[C@@H](CS(=O)(=O)O)[C@@H](OS(=O)(=O)O)[C@H]1OS(=O)(=O)O`, the Delta G in experiment [1] was -7.17 kcal/mol; in experiment [3], -8.36 kcal/mol. Moreover, the Kd was 0.74 µM in experiment [2] and 5.5 µM in experiment [4].
Consider `O=S(=O)(O)OC[C@@H]1O[C@H](O[C@H]2[C@H](OS(=O)(=O)O)[C@H](OS(=O)(=O)O)C(OS(=O)(=O)O)O[C@H]2COS(=O)(=O)O)[C@@H](OS(=O)(=O)O)[C@H](OS(=O)(=O)O)[C@H]1OS(=O)(=O)O` (some centres not stated), for which the figures for the Delta G in experiment [1] and in experiment [3] were -7.09 kcal/mol and -8.54 kcal/mol, respectively. For the same compound, the Kd was 0.54 µM in experiment [2] and 6.3 µM in experiment [4].
For the compound `COC1C(OCc2ccccc2)C2COC(O2)C1OS(=O)(=O)O` (configuration not stated), the Delta G in experiment [1] was -2.86 kcal/mol; in experiment [3], -4.79 kcal/mol. Moreover, the Kd in experiment [2] was found to be 307 µM; in experiment [4] it was 8020 µM.
`O=S(=O)(O)C[C@@H]1[C@H](OS(=O)(=O)O)O[C@H](OS(=O)(=O)O)[C@H](O[C@H]2O[C@@H](COS(=O)(=O)O)[C@@H](OS(=O)(=O)O)[C@H](OS(=O)(=O)O)[C@H]2OS(=O)(=O)O)[C@H]1OS(=O)(=O)O`: the Delta G in experiment [1] was -6.24 kcal/mol; in experiment [3], -9.39 kcal/mol. Further, the Kd was 0.13 µM in experiment [2] and 26.7 µM in experiment [4].
Taken in the same sequence, the figures for `CO[C@@H]1O[C@@H](COS(=O)(=O)O)[C@@H](O[C@@H]2O[C@@H](COS(=O)(=O)O)[C@H](OS(=O)(=O)O)[C@H](OS(=O)(=O)O)[C@@H]2OS(=O)(=O)O)[C@H](OS(=O)(=O)O)[C@@H]1OS(=O)(=O)O` were -6.53 kcal/mol, -8.1 kcal/mol, 1.15 µM and 16.2 µM.
Consider `O=S(=O)(O)OC[C@@H]1O[C@H](OS(=O)(=O)O)[C@H](OC2O[C@@H](COS(=O)(=O)O)[C@@H](S(=O)(=O)O)[C@H](O[C@H]3O[C@@H](COS(=O)(=O)O)[C@@H](OS(=O)(=O)O)[C@H](OS(=O)(=O)O)[C@H]3OS(=O)(=O)O)[C@H]2OS(=O)(=O)O)[C@@H](OS(=O)(=O)O)[C@@H]1OS(=O)(=O)O` (some centres not stated), for which the Delta G in experiment [1] is -8.08 kcal/mol; in experiment [3], -11.1 kcal/mol. Besides, the Kd was found to be 0.0078 µM in experiment [2] and 1.18 µM in experiment [4].
As for `CO[C@@H]1O[C@@H](COS(=O)(=O)O)[C@@H](OS(=O)(=O)O)[C@H](OC(=O)c2ccccc2)[C@@H]1OC(=O)c1ccccc1`, the Kd entry was “None observed” in experiment [5] and 921 µM in experiment [2]. In addition, the Delta G in experiment [3] is -4.14 kcal/mol.
For `COC1OC(C)C(OCc2ccccc2)C(OS(=O)(=O)O)C1OS(=O)(=O)O` (configuration not stated), the figures for the Delta G in experiment [1] and in experiment [3] were -4.91 kcal/mol and -4.73 kcal/mol, respectively. In addition, the Kd in experiment [2] is 338 µM; in experiment [4], 249 µM.
For the compound `O=S(=O)(O)OC[C@H]1OCC[C@@H](OCCCOc2ccccc2)C1OS(=O)(=O)O` (some centres not stated), the Delta G in experiment [1] was -2.9 kcal/mol; in experiment [3], -3.39 kcal/mol. The Kd in experiment [2] was 3250 µM; in experiment [4] it was 7500 µM.
On to `CO[C@H]1O[C@@H](COCC(=O)N(CCOS(=O)(=O)O)CC(=O)NC2CCCCC2)[C@@H](OS(=O)(=O)O)[C@H](OS(=O)(=O)O)[C@H]1OS(=O)(=O)O`, for which the Delta G in experiment [1] was -4.44 kcal/mol; in experiment [3], -4.8 kcal/mol. Besides, the Kd in experiment [2] was 300 µM; in experiment [4], 550 µM.
As for `O=C(O)c1cc(/N=N/c2ccc(S(=O)(=O)Nc3ccccn3)cc2)ccc1O` [SULFASALAZINE], the Kd is 609 µM in experiment [2] and “None Observed” in experiment [6]. Also, in experiment [3], the Delta G was -4.38 kcal/mol.
Regarding `O=S(=O)(O)OC[C@@H]1O[C@@H](O[C@H]2[C@H](OS(=O)(=O)O)[C@H](OS(=O)(=O)O)C(OS(=O)(=O)O)O[C@H]2COS(=O)(=O)O)[C@@H](OS(=O)(=O)O)[C@H](OS(=O)(=O)O)[C@H]1OS(=O)(=O)O` (some centres not stated), the Delta G in experiment [1] was -6.65 kcal/mol; in experiment [3], -8.07 kcal/mol. The Kd in experiment [2] was 1.2 µM; in experiment [4], 13.3 µM.
For the compound `O=S(=O)(O)OC[C@@H]1O[C@H](OS(=O)(=O)O)[C@H](OS(=O)(=O)O)[C@@H](OS(=O)(=O)O)[C@@H]1OS(=O)(=O)O`, the Delta G in experiment [1] was -5.19 kcal/mol; in experiment [3] it was -6.04 kcal/mol. The dissociation constant Kd was 37.5 µM in experiment [2] and 155 µM in experiment [4].
Turning to `O=S(=O)(O)c1ccc2c(S(=O)(=O)O)cc(S(=O)(=O)O)cc2c1` [NAPHTHALENE TRISULFONATE], the results for the Delta G in experiment [1] and in experiment [3] were -4.98 kcal/mol and -4.53 kcal/mol, respectively. In addition, the Kd worked out at 474 µM in experiment [2] and 223 µM in experiment [4].
Turning to `CO[C@@H]1CCO[C@H](COS(=O)(=O)O)C1OS(=O)(=O)O` (some centres not stated), the Delta G in experiment [1] was -2.39 kcal/mol; in experiment [3] it was -3.04 kcal/mol. Besides, the values for the Kd in experiment [2] and in experiment [4] were 5940 µM and 17400 µM, respectively.
Turning to `CO[C@H]1O[C@H](COS(=O)(=O)O)[C@@H](OS(=O)(=O)O)[C@H](OS(=O)(=O)O)[C@@H]1OS(=O)(=O)O`, the results for the Delta G in experiment [1] and in experiment [3] were -4.72 kcal/mol and -5.31 kcal/mol, respectively. Moreover, the Kd in experiment [2] was found to be 127 µM; in experiment [4], 343 µM.
Taken in the same sequence, the figures for `O=C(CN(Cc1ccccc1)C(=O)C1OC(OS(=O)(=O)O)C(OS(=O)(=O)O)C(OS(=O)(=O)O)C1OS(=O)(=O)O)NC1CCCCC1` (configuration not stated) were -4.67 kcal/mol, -5.35 kcal/mol, 120 µM and 375 µM.
`C=CCOC1C(C)OC(OC)C(OS(=O)(=O)O)C1OS(=O)(=O)O` (configuration not stated): the values for the Kd result in experiment [5] and in experiment [2] were “None observed” and 1340 µM, respectively. Besides, the Delta G in experiment [3] is -3.92 kcal/mol.
As for `O=S(=O)(O)OC[C@H]1OCC[C@@H](OCc2ccccc2)C1OS(=O)(=O)O` (some centres not stated), the Delta G in experiment [1] is -3.13 kcal/mol; in experiment [3], -3.36 kcal/mol. Further, the Kd in experiment [2] stood at 3410 µM; in experiment [4], 5100 µM.
